The logD is lipophilicity at a set pH, counting ionised and neutral species.

The nature of data set [1]: Characterization of Cas9 RNP nanocarriers by DLS (size, PDI, zeta potential). The data set is classed as physicochemical. To be noted: N/P ratio 24, RNP 75 nM, three technical replicates; for PDI of Cas9 RNP nanocarriers / hydrodynamic size (z-average) of Cas9 RNP nanocarriers: DLS, HBG pH 7.4, mean ± SD; for zeta potential of Cas9 RNP nanocarriers: electrophoretic light scattering, HEPES 20 mM pH 7.4, mean ± SD. Here is the method:
Preparation of Cas9 RNP and Cas9 RNP/ssDNA nanocarriers
Cas9 protein was expressed, purified, and stored at -80 °C in storage buffer (20 mM HEPES, 200 mM KCl, 10 mM MgCl 2, 1 mM DTT, 30 % glycerol) as described previously.6 Cas9 protein and sgRNA (dissolved in RNase-free water) were mixed at 1:1 molar ratio and incubated at RT for 15 min to form the Cas9/sgRNA ribonucleoprotein (RNP) complexes. Afterwards, Cas9 RNP was added into the xenopeptide solution in HBG buffer (pH 7.4) at an N/P (nitrogen t o phosphate of sgRNA) ratio of 24. The solution was mixed thoroughly by pipetting up and down and incubated at RT for another 15 min to generate the final Cas9 RNP nanocarriers. In case of preparing Cas9 RNP/ssDNA nanocarriers for HDR experiments, Cas9 RNP was mixed with ssDNA HDR template at 1:1 molar ratio and then added into the xenopeptide solution in HBG buffer (pH 7.4) at an N/P (nitrogen to phosphate of sgRNA plus ssDNA) ratio of 12. The solution was mixed and incubated for 40 min to generate the Cas9 RNP/ssDNA nanocarriers.
Characterization of Cas9 RNP nanocarriers
The hydrodynamic size, PDI and zeta potential of Cas9 RNP nanocarriers were measured by DLS using a Zetasizer Nano ZS (Malvern Instruments, UK). Cas9 RNP nanocarriers were prepared as desc ribed above. The hydrodynamic size of Cas9 RNP nanocarriers containing 1.25 μg Cas9 protein and 0.25 μg sgRNA (Cas9/sgRNA, 1:1 molar ratio) in 100 μL HBG was measured.
Afterwards, 700 μL HEPES buffer (20 mM, pH 7.4) were added to each sample and the soluti on was mixed for the zeta potential measurement. For the dilution stability study, Cas9 RNP nanocarriers were prepared at an RNP concentration of 375 nM (6.25 μg Cas9 protein and 1.25 μg sgRNA) and then diluted with HBG buffer to a series of RNP concentrat ions (75, 50, 25, 10, 5, 2.5, 1, 0.5, and 0.1 nM). The size and zeta potential of diluted samples were measured as described above.

Data set [2] can be described thus: LogD7.4 determination of xenopeptides (octanol-water). The data set is classed as physicochemical. The conditions noted are these: shake-flask n-octanol/HEPES buffer (20 mM, pH 7.4); 10 μL of 10 mg/mL xenopeptide in water + 90 μL buffer + 100 μL n-octanol; shaken 1400 rpm 24 h; centrifuged, 4 °C 1 h; HPLC, extinction 280 nm; log(Aoctanol/Awater); triplicate. As to the method:
LogD7.4 determination of xenopeptides
Octanol-water partition coefficient D at pH 7.4 (logD7.4) was determined as previously reported with slight modification.5
Scheme S3 illustrates the logD7.4 determination procedures of all xenopeptides in this study. Briefly, 10 μL of 10 mg/mL xenopeptides in water were diluted with 90 μL HEPES buffer (20 mM, pH 7.4) in 1.5 mL reaction tubes. 100 μL n-octanol were then added. The tubes were shaken at 1400 rpm for 24 h. Afterwards, the tubes were centrifuged followed by storage at 4 °C for 1 h to separate n-octanol and water phases. 70 μL of each phase were injected for HPLC analysis. The extinction at 280 nm was monitored and the peak area (A) of the xenopeptides was calculated. LogD7.4 was calculated as log(Aoctanol / Awater).
All experiments were performed in triplicate. […]
Cas9 RNP/ssDNA nanocarriers. […]

Another data set relates to HeLa eGFP/tub cells. In words: eGFP knockout study by Cas9 RNP nanocarriers, flow cytometry. To be noted: 1 nM RNP, 48 h treatment, N/P 24. The data set is classed as cell-based. Here is the method: HeLa WT, HeLa eGFP/tub, HeLa GFPd2 (destabilized eGFP), CT26 eGFP/luc and N2a eGFP/luc cells were grown in DMEM medium supplemented with 10 % FBS, 100 U/mL penicillin, and 100 μg/mL streptomycin. The cells were cultured in ventilated flasks in the cell incubator at 37 °C and 5 % CO2 in a humidified atmosphere. The cells were passaged at a confluency of […]
Cells were harvested and resuspended in 600 μL of FACS buffer (PBS buffer containing 10 % FBS). The samples were ana-lyzed by flow cytometry on a CytoFLEX S flow cytometer (Beckman Coulter, CA, USA). For eGFP knockout and cellular uptake experiments, 0.6 μL of 1 μg/μL DAPI was added to each sample for differentiating live and dead cells before the measurement. The DAPI signal and BFP fluorescence were detected with 405 nm excitation and 450 nm emission. The eGFP and ATTO488 fluorescence was assayed with 488 nm excitation and 530 nm emission. The ATTO647N fluorescence was assayed with 640 nm excitation and 670 nm emission. Ten thousand of isolated live cells were counted and evaluated. The data were analyzed using FlowJo 7.6.5 by FlowJo, LLC (Becton, Dickinson and Company, USA). […]
Endosomal escape of Cas9 RNP nanocarriers […]
Next, the […]
cells were washed twice with PBS and then fixed with 4 % PFA at RT for 40 min. Afterwards, the cells were washed and incubated with 2 µg/mL DAPI (for staining cell nuclei) for 30 min. Then, the staining solution was removed and 300 μL fresh PBS were added. The slides w ere stored at 4 °C in the dark until the measurement. […]
Then, the image was conv erted into 8-bit type. The mRuby3/gal8 spots were further determined by Threshold tool, and the number of the spots in the cell cytosol per cell were counted by Analyze Particles tool.
One day prior to the treatments, HeLa eGFP/tub cell s were seeded into 96 -well plates at a density of 5000 cells/well. On the next day, the medium was replaced with 80 μL of fresh medium. 20 μL of Cas9 RNP nanocarriers were added to each well resulting in a series of concentrations of RNP (100, 75, 50, 25, 10, 5, 2.5, 1, 0.5, and 0.1 nM). Lipofectamine CRISPRMAX was tested at the same concentrations of RNP with the preparation procedures as recommended by the manufacturer. The cells were incubated for 48 h. Afterwards, the cells were trypsinized and transfer red to 24-well plates, and incubated for another 72 h. Then, the cells were harvested and prepared for flow cytometry analysis. All experiments were performed in triplicate. eGFP to BFP conversion (HDR) study
One day prior to the treatments, HeLa GFPd2 cel ls were seeded into 96 -well plates at a density of 5000 cells/well. On the next day, the medium was replaced with 80 μL of fresh medium. 20 μL of Cas9 RNP/ssDNA nanocarriers containing different molar ratios of RNP/ssDNA were added to each well resulting i n a series of concentrations of RNP (100, 75, 50, 25, 10, 5, 2.5, 1, 0.5, and 0.1 nM). Lipofectamine CRISPRMAX was tested at the same concentrations of RNP and ssDNA with the prepara-tion procedures as recommended by the manufacturer. The cells were incubat ed for 48 h. Afterwards, the cells were trypsinized and transferred to 24 -well plates, and incubated for another 72 h. Then, the cells were harvested and prepared for flow cytom-etry analysis. […]
Half maximal effective concentration (EC50) values were calculated by GraphPad prism 5. […] All other data were analyzed with GraphPad prism 5 and presented as arithmetic mean ± standard deviation (SD) of at least triplicates. […]
A general note: A flow cytometer gives signals particle by particle.

For the molecule “K(N3)-C-Y3-GEIPA2-K(K(OHSteA)2)-GEIPA2-Y3-C [GEIPA2-C-OHSteA, lipid-modified xenopeptide, X2-C-OHSteA architecture, artificial amino acid GEIPA]”, in data set [1], the “PDI of Cas9 RNP nanocarriers” value was found to be 0.28 ± 0.02, the “hydrodynamic size (z-average) of Cas9 RNP nanocarriers” value is 179.8 ± 5.3 nm and the “zeta potential of Cas9 RNP nanocarriers” value is 13.4 ± 2.1 mV.

With `CCCCC/C=C\C/C=C\CCCCCCCC(=O)NCCCC[C@H](NC(=O)CCCCCCC/C=C\C/C=C\CCCCC)C(=O)NCCCC[C@H](NC(=O)CNCC(=O)NCCNCCNCCNCCNC(=O)[C@H](Cc1ccc(O)cc1)NC(=O)[C@H](Cc1ccc(O)cc1)NC(=O)[C@H](Cc1ccc(O)cc1)NC(=O)[C@@H](N)CCCCN=[N+]=[N-])C(=O)NCCNCCNCCNCCNC(=O)CNCC(=O)N[C@@H](Cc1ccc(O)cc1)C(=O)N[C@@H](Cc1ccc(O)cc1)C(=O)N[C@@H](Cc1ccc(O)cc1)C(=O)O` [IDAtp1-LinA], in data set [2], the log distribution coefficient (logD) is -1.11.

On to `CCCCC/C=C\C/C=C\CCCCCCCC(=O)NCCCC[C@H](NC(=O)CCCCCCC/C=C\C/C=C\CCCCC)C(=O)NCCCC[C@H](NC(=O)[C@H](Cc1c[nH]cn1)NC(=O)CNCC(=O)NCCNCCNCCNCCNC(=O)[C@H](Cc1c[nH]cn1)NC(=O)[C@H](Cc1ccc(O)cc1)NC(=O)[C@H](Cc1ccc(O)cc1)NC(=O)[C@H](Cc1ccc(O)cc1)NC(=O)[C@@H](N)CCCCN=[N+]=[N-])C(=O)N[C@@H](Cc1c[nH]cn1)C(=O)NCCNCCNCCNCCNC(=O)CNCC(=O)N[C@@H](Cc1c[nH]cn1)C(=O)N[C@@H](Cc1ccc(O)cc1)C(=O)N[C@@H](Cc1ccc(O)cc1)C(=O)N[C@@H](Cc1ccc(O)cc1)C(=O)O` [IDAtp1-H-LinA], for which, in data set [1], the “PDI of Cas9 RNP nanocarriers” value is reported as 0.19 ± 0.02, the “hydrodynamic size (z-average) of Cas9 RNP nanocarriers” value worked out at 189.1 ± 4.2 nm and the “zeta potential of Cas9 RNP nanocarriers” value was found to be 13.7 ± 1.2 mV. Besides, the log distribution coefficient (logD) in data set [2] is -1.51.

Take `CCCCC/C=C\C/C=C\CCCCCCCC(=O)NCCCC[C@H](NC(=O)CCCCCCC/C=C\C/C=C\CCCCC)C(=O)NCCCC[C@H](NC(=O)[C@H](Cc1c[nH]cn1)NC(=O)CCC(=O)NCCNCCNCCNCCNC(=O)[C@H](Cc1c[nH]cn1)NC(=O)[C@H](Cc1ccc(O)cc1)NC(=O)[C@H](Cc1ccc(O)cc1)NC(=O)[C@H](Cc1ccc(O)cc1)NC(=O)[C@@H](N)CCCCN=[N+]=[N-])C(=O)N[C@@H](Cc1c[nH]cn1)C(=O)NCCNCCNCCNCCNC(=O)CCC(=O)N[C@@H](Cc1c[nH]cn1)C(=O)N[C@@H](Cc1ccc(O)cc1)C(=O)N[C@@H](Cc1ccc(O)cc1)C(=O)N[C@@H](Cc1ccc(O)cc1)C(=O)O` [Stp1-H-LinA]: the eGFP knockout with HeLa eGFP/tub cells is around 80%.

For the molecule `CCCCC/C=C\C/C=C\CCCCCCCC(=O)NCCCC[C@H](NC(=O)CCCCCCC/C=C\C/C=C\CCCCC)C(=O)NCCCC[C@H](NC(=O)CCCC(=O)NCCCNCCNCCCNC(=O)[C@H](Cc1ccc(O)cc1)NC(=O)[C@H](Cc1ccc(O)cc1)NC(=O)[C@H](Cc1ccc(O)cc1)NC(=O)[C@@H](N)CCCCN=[N+]=[N-])C(=O)NCCCNCCNCCCNC(=O)CCCC(=O)N[C@@H](Cc1ccc(O)cc1)C(=O)N[C@@H](Cc1ccc(O)cc1)C(=O)N[C@@H](Cc1ccc(O)cc1)C(=O)O` [GEIPA1-LinA], the logD in data set [2] is -0.33.

Values taken from PMC10360056, “Chemical Evolution of Amphiphilic Xenopeptides for Potentiated Cas9 Ribonucleoprotein Delivery” (Journal of the American Chemical Society, 2023).
